# Laboratory results as given in ChEMBL document CHEMBL1201862, “PubChem BioAssay data set” (2004).
# Several values for one entry are separate records, joined by “and”; a condition that tells them apart may be missing. Equal entries are not always repeated. Activity calls are given as the source filed them.
# Legend:
# [1] = target: Cytochrome P450 2C19 (Homo sapiens, UniProt P33261); assay: Cytochrome panel assay with activity outcomes. Panel member name: p450-cyp2c19 Compounds with AC50 equal or less than 10 uM are considered active; type: functional
# Chain of Cytochrome P450 2C19 (P33261 whole entry): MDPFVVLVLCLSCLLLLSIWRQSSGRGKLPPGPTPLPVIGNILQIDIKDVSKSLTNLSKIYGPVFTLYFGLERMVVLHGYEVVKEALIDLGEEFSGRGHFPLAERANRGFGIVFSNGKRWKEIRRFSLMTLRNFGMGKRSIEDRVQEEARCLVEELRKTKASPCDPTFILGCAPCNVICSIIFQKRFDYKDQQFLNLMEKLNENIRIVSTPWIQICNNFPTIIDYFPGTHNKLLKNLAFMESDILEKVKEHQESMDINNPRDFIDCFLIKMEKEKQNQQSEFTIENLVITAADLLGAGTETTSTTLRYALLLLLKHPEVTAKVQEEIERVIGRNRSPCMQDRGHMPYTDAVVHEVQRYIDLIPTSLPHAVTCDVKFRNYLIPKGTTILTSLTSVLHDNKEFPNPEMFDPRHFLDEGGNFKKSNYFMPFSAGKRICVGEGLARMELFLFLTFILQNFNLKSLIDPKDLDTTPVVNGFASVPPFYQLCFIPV
# [2] = target: T1, Rac GTPase-activating protein 1 (Homo sapiens, UniProt Q9H0H5); assay: MgcRacGAP GTPase-activating activity inhibitors, confirmation, biochemical, ADP Hunter fluorescence, primary and confirmatory (AID 624330); type: functional
# T1 sequence (Q9H0H5 whole entry): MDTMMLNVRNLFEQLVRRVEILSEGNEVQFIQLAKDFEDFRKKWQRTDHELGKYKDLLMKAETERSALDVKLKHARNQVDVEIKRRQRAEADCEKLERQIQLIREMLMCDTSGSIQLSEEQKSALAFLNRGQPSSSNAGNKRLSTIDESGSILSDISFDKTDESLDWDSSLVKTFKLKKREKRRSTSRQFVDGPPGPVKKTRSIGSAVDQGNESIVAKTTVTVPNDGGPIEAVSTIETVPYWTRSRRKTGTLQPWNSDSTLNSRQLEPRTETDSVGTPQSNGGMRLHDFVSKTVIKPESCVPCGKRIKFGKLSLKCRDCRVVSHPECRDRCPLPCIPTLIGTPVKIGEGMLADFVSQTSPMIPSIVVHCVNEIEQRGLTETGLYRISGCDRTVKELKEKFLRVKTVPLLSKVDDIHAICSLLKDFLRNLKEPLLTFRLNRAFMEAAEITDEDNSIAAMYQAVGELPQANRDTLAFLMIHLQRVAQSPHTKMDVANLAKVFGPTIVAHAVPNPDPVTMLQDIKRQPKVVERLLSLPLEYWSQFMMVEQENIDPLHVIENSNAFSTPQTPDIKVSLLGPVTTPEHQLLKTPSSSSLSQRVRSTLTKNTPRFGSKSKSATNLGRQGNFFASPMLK
# [3] = target: Cytochrome P450 3A4 (Homo sapiens, UniProt P08684);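 further: CYP3A4 tested as one member of a cytochrome P450 panel screen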
# Chain of Cytochrome P450 3A4 (P08684 whole entry): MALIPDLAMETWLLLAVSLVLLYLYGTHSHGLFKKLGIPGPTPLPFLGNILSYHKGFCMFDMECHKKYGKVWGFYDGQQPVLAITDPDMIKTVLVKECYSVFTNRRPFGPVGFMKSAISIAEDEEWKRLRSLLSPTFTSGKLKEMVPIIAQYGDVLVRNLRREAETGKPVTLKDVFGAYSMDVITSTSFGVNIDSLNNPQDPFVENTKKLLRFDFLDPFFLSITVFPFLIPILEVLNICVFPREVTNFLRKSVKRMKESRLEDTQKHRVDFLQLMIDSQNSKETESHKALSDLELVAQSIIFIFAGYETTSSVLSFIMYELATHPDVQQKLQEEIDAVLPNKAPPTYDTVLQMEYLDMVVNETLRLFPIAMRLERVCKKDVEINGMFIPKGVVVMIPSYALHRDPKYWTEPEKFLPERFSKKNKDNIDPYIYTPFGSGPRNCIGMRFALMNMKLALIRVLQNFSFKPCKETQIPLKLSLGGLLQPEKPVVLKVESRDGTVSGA
# [4] = target: Cytochrome P450 2C9 (Homo sapiens, UniProt P11712)
# Chain of Cytochrome P450 2C9 (P11712 whole entry): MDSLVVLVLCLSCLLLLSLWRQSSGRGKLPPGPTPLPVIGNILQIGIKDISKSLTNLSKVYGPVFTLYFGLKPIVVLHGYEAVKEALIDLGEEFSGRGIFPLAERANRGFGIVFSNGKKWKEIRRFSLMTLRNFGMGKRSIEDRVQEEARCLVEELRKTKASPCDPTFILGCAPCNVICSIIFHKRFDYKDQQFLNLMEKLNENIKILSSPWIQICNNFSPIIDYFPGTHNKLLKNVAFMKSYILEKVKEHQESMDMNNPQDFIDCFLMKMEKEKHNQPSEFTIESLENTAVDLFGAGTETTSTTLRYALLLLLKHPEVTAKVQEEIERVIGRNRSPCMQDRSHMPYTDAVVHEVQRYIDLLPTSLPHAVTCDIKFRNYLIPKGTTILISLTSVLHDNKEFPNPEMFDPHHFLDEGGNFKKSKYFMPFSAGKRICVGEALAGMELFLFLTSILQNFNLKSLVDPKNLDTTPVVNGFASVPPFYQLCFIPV
# [5] = target: T2, Cytochrome P450 1A2 (Homo sapiens, UniProt P05177)
# T2 sequence (P05177 whole entry): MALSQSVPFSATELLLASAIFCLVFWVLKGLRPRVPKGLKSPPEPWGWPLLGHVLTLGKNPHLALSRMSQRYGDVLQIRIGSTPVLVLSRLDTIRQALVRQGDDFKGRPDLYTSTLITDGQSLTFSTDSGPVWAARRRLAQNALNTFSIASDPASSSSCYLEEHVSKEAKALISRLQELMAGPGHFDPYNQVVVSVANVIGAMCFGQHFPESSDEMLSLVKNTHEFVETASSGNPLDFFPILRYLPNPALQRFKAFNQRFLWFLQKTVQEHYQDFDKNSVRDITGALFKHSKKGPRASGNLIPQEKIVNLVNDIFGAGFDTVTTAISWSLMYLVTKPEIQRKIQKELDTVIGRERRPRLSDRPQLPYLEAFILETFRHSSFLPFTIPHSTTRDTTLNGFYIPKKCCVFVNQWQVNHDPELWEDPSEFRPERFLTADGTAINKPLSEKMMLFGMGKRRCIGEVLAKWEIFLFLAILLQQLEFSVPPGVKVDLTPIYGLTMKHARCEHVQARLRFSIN
# [6] = HEp-2 cell cytotoxicity, dose response, cytotoxicity control for RSV inhibitor project, HTS (AID 2410); type: functional; settings: human respiratory syncytial virus
# [7] = target: T3, Streptokinase A (Streptococcus pyogenes serotype M1, UniProt P10520); assay: S. pyogenes streptokinase expression inhibitors, potency, dose response, plasminogen activation absorbance, OD405 (AID 1914); type: functional, Streptococcus pyogenes M1 GAS;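 further: secreted streptokinase activity via plasminogen activation per viability signal from cell pellet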
# T3 sequence (P10520 whole entry): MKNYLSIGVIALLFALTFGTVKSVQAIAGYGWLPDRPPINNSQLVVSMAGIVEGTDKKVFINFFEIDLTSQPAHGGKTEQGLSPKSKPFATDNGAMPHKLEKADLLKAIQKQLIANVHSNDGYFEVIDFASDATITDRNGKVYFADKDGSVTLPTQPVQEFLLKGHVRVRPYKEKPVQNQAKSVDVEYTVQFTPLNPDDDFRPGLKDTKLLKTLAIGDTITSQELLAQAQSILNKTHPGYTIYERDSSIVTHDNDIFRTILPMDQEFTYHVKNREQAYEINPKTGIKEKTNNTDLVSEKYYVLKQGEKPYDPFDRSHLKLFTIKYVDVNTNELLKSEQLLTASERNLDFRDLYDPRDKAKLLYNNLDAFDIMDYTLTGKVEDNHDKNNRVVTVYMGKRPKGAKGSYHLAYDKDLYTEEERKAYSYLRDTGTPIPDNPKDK
# [8] = system: Streptococcus sp. 'group A'; assay: growth inhibition of control SK(-) GAS strain, dose response, counter-screen for streptokinase expression inhibitor project, luminescence, kanamycin, BacTiterGlo, confirmation (AID 1900); type: functional, organism-based
# [9] = system: Streptococcus; assay: Group A Streptococcus viability loss, dose response, counter-screen for streptokinase expression inhibitor project, luminescence, BacTiterGlo (AID 1915); type: functional, organism-based;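 further: potency for reduction of bacterial viability or growth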
smiles,measurement,setting,value
Cc1ccc(S(=O)(=O)N2CCC(C(=O)O)(c3ccccc3)CC2)cc1,AC50,[1],inconclusive
Cc1ccc(Nc2nnc(S)s2)cc1F,IC50,[2],54.5 µM (active)
CN(C)/C(CN1CCOCC1)=C1\N=C(c2ccccc2)OC1=O,AC50,[1]; read-out: AC50,7.94 µM (inconclusive)
O=C(CSCc1ccc(Cl)cc1)Nc1nccs1,AC50,[3],3.55 µM (inconclusive)
same,AC50,[4],14.1 µM (inconclusive)
C[C@@H](C(=O)NCc1ccc(S(C)(=O)=O)cc1)[C@@H]1C[C@@]1(C)[C@@H](NC(=O)OCc1ccccc1)c1ccccc1,AC50,[5],15.8 µM (inconclusive)
C/C(=C(/CCO)SSC[C@@H]1CCCO1)N(C=O)Cc1cnc(C)nc1N,AC50,[3],10 µM (inconclusive)
CN(Cc1ccccc1)Cn1ccnc1,AC50,[3],3.98 µM (inconclusive)
Cc1ccc(/C=C/C2=NN(Cc3ccccc3)C(=O)CC2)cc1,CC50,[6],15 µM (active)
CCOc1ccc(NC(=S)NC(=O)/C=C/c2ccc(OC)c(OC)c2)c([N+](=O)[O-])c1,AC50,[5],15.8 µM (inconclusive)
same,AC50,[4],14.1 µM (inconclusive)
Cc1ccccc1NC1=C(C(=O)c2ccccc2)N(C)S(=O)(=O)c2ccccc21,AC50,[3],3.16 µM (inconclusive)
CCOC(=O)CC(NC(=O)c1ccco1)c1ccc(OC)cc1 (configuration not stated),AC50,[5],25.1 µM (inconclusive)
same,AC50,[4],15.8 µM (inconclusive)
N=C(N)SCc1cccc2c(=O)cc(-c3ccccc3)oc12,AC50,[1]; read-out: AC50,3.98 µM (inconclusive)
same,AC50,[3],3.16 µM (inconclusive)
CC(C)(C)OC(=O)N1CCCC1C(=O)NCCc1ccccc1 (configuration not stated),AC50,[3],25.1 µM (inconclusive)
COc1ccc(CNC(=O)c2cnc(C)cn2)cc1,AC50,[5],12.6 µM (inconclusive)
COc1cc2c(cc1OC)[C@@]13CCN4C=C5CCO[C@H]6CC(=O)N2[C@@H]1[C@@H]6[C@H]5C[C@H]43,AC50,[5],5.01 µM (inconclusive)
COc1cccc(C(C#N)N2N=C(C)CC2(C)C)c1O (configuration not stated),AC50,[1]; read-out: AC50,2.24 µM (inconclusive)
O=C(Nc1nc2ccccc2n1CCN1CCCCC1)C1CCCCC1,AC50,[1]; read-out: AC50,28.2 µM (inconclusive)
same,AC50,[3],17.8 µM (inconclusive)
O=C(c1cccc(Cl)c1)N1CCN(C2CCCCC2)CC1,IC50,[2],300 µM (active)
Cc1c(C(=O)O)oc2ccc(S(=O)(=O)NCc3ccc4c(c3)OCO4)cc12,AC50,[5],14.1 µM (inconclusive)
same,AC50,[4],3.55 µM (inconclusive)
COC(=O)c1ccc(C(=O)OC)c(NC(=O)CSCc2ccc(Br)cc2)c1,AC50,[1]; read-out: AC50,2.24 µM (inconclusive)
Cc1nc(NS(=O)(=O)c2ccc(Cl)s2)c2c3c(sc2n1)CCCC3,EC50,[7],21.5 µM (inconclusive)
same,EC50,[8],4.37 µM (active)
same,EC50,[9],14.9 µM (active)
CC(C)CN1CCCC2(CCN(C(=O)c3csnn3)CC2)C1,AC50,[3],31.6 µM (inconclusive)
Cc1sc2ncnc(Nc3ccc(O)cc3)c2c1C,IC50,[2],39.4 µM (active)
Cc1ccccc1CN1CCCN(Cc2ccc(Cl)cc2)S1(=O)=O,EC50,[7],23.3 µM (active)
same,EC50,[8],10.1 µM (active)
same,EC50,[9],> 150 µM (not active)
C[C@@H](COc1ccccc1)N(CCCl)Cc1ccccc1,AC50,[5],12.6 µM (inconclusive)
same,AC50,[4],31.6 µM (inconclusive) and 12.6 µM (inconclusive)
c1ccc(-c2nnc3n2NC(c2ccc4c(c2)OCO4)S3)cc1 (configuration not stated),IC50,[2],153 µM (active)
